A word on the Ki: it is a measure of affinity in units of concentration, obtained from inhibition or displacement.

Molecules are shown by their SMILES.

This assay deals with T1, MLXBIR3SG (Homo sapiens, UniProt Q96CA5, S150G).
T1 construct: His6 tag (MGSSHHHHHH, followed by linker with LVPRGS thrombin site) (N)
T1 sequence (Q96CA5 with tags, fused parts or gaps S150G): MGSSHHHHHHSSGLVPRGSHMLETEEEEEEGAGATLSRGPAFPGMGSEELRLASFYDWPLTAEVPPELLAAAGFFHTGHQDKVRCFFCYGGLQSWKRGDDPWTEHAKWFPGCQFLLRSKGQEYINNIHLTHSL
The assay can be described thus: Fluorescence Polarization Peptide Binding Assay (competition with AVP-diPhe-FAM probe). Particulars: MLXBIR3SG at 30 nM, 5 nM AVP-diPhe-FAM probe, Ki determined from IC50 values, unit inferred. Here is the method:
In the following experiments was used a chimeric BIR domain referred to as MLXBIR3SG in which 11 of 110 residues correspond to those found in XIAP-BIR3, while the remainder correspond to ML-IAP-BIR. […] The improved caspase-9 inhibition of the chimeric BIR domain MLXBIR3SG has been correlated with increased inhibition of doxorubicin-induced apoptosis when transfected into MCF7 cells.
Polarization experiments were performed on an Analyst HT 96-384 (Molecular Devices Corp.) according to the procedure of Keating, S. M., Marsters, J, Beresini, M., Ladner, C., Zioncheck, K., Clark, K., Arellano, F., and Bodary., S. (2000) in Proceedings of SPIE: In Vitro Diagnostic Instrumentation (Cohn, G. E., Ed.) pp 128-137, Bellingham, Wash. Samples for fluorescence polarization affinity measurements were prepared by addition of 1:2 serial dilutions starting at a final concentration of 5 μM of MLXBIR3SG in polarization buffer (50 mM Tris [pH 7.2], 120 mM NaCl, 1% bovine globulins 5 mM DTT and 0.05% octylglucoside) to 5-carboxyflourescein-conjugated AVPdi-Phe-NH2 (AVP-diPhe-FAM) at 5 nM final concentration.
The reactions were read after an incubation time of 10 minutes at room temperature with standard cut-off filters for the fluorescein fluorophore (λex=485 nm; λem=530 nm) in 96-well black HE96 plates (Molecular Devices Corp.). Fluorescence values were plotted as a function of the protein concentration, and the IC50s were obtained by fitting the data to a 4-parameter equation using Kaleidograph software (Synergy software, Reading, Pa.). Competition experiments were performed by addition of the MLXBIR3SG at 30 nM to wells containing 5 nM of the AVP-diPhe-FAM probe as well as 1:3 serial dilutions of antagonist compounds starting at a concentration of 300 μM in the polarization buffer. Samples were read after a 10-minute incubation. Fluorescence polarization values were plotted as a function of the antagonist concentration, and the IC50 values were obtained by fitting the data to a 4-parameter equation using Kaleidograph software (Synergy software, Reading, Pa.). Inhibition constants (Ki) for the antagonists were determined from the IC50 values.
`C[C@@H](NCCO)C(=O)N[C@H](C(=O)N1CCC[C@H]1c1nc2c(-c3ccccc3)nccc2s1)C1CCCCC1` [compound 48]: the Ki was 7.87 µM.

As for `C[C@H](NCCO)C(=O)N[C@H](C(=O)N1CCC[C@H]1c1nc2c(-c3ccccc3)nccc2s1)c1ccccc1` [compound 54], the Ki came to 0.0556 µM.

Consider `CN[C@@H](C)C(=O)N[C@H](C(=O)N1CCC[C@H]1c1nc2c(-c3ccccc3)ncnc2s1)C1CCN(C(=O)COC)CC1` [compound 56], for which the Ki was determined as 0.0338 µM.

Consider `C[C@H](NCCO)C(=O)N[C@H](C(=O)N1CCC[C@H]1c1nc2c(-c3ccccc3)ccnc2s1)C1CCCCC1` [compound 60], for which the Ki was 0.145 µM.

The values are drawn from patent US8247557B2, “IAP inhibitors” (Genentech, Inc., priority 2005, dated 2012).
